Columns and labels:
p53 = test: Western blot, p53 expression; assay type: cell-based; conditions: breast cancer cells
Description: The MCF-7, SKBR3 and HCT116 total cell lysate were prepared after 24 hours of treatment with compound it at IC50 and DIC50 doses by using 1× laemmli buffer. Total protein concentration was then estimated for each sample and 15-30 μg of protein lysate were loaded equally on 12% SDS-PAGE gel in order to detect various proteins expression levels. In short, the membrane was incubated with different primary antibodies (as mentioned in above section) (1:1000) overnight after blocking with 5% non-fat milk solution for 1 hour. The membrane was then re-probed with respective mouse/rabbit secondary antibodies (1:2000) for 1 h, and later developed by enhanced chemiluminescence (ECL) method by using a Chemidoc MP (BioRad, Germany).

[1] = biological target: T1, inositol-3-phosphate synthase (Homo sapiens, UniProt Q9NPH2); test: DARTS proteomic assay; assay type: binding
T1 construct: HEK293T cells were lysed using M-PER; endogenous in cells; host or cells: HEK293T lysate
T1 sequence (Q9NPH2 whole entry): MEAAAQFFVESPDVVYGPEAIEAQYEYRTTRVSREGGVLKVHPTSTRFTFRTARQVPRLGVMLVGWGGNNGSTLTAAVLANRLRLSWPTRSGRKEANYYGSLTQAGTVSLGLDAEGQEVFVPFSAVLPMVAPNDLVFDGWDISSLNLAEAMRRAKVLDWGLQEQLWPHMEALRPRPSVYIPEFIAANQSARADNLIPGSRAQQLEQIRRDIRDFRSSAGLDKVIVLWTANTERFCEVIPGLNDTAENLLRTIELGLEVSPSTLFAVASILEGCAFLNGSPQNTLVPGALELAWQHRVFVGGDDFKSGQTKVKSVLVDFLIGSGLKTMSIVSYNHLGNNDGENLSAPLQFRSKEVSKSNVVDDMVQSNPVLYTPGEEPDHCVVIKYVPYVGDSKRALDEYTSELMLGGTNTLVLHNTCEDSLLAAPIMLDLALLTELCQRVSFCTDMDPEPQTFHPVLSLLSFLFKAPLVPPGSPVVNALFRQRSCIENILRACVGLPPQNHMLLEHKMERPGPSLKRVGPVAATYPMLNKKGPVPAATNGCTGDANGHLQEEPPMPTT
Description: (§1) The unique properties of compound it prompted an in-depth analysis to explore its potential novel targets.
(§2) Similarly, deregulated inositol metabolism has been observed in a number of diseases, including cancer, where inositol modulates different critical pathways in disease progression. Moreover, it is expressed consistently in bipolar disorders and Alzheimer's diseases. […] Likewise, the role of glutathione reductase is well known in cancer progression and chemoresistance. The equilibrium between the glutathione disulphide ratio is critical not only in cancer progression but also in increased oxidative stress which can lead to other disorders.
(§3) A DARTS assay was used to assess the binding of compound 1t. HEK293T cells were lysed using M-PER (Thermo Scientific, Inc.) supplemented with protease and phosphatase inhibitors (Lysis buffer). 4.7 mg/mL of protein and TNC buffer (10 mM Tris, 140 mMNaCl, 5 mM CaCl2)) was added, compound it was diluted in DMSO to 3 different concentrations (0.01 μM, 0.1 μM, 1 μM) and incubated for one hour at room temperature. Trypsin (Promega) was added and incubated for 3 hours at 37° C. Thereafter, M-PER lysis buffer was added and the samples were concentrated with Microcon 10K centrifugal filters. The proteins were identified by gel electrophoresis liquid chromatography mass spectroscopy (GelLCMS).

[2] = biological target: T2, transferrin receptor proteins (Homo sapiens, UniProt P02786); test: DARTS proteomic assay; assay type: binding
T2 construct: HEK293T cells were lysed using M-PER; endogenous in cells; host or cells: HEK293T lysate
T2 sequence (P02786 whole entry): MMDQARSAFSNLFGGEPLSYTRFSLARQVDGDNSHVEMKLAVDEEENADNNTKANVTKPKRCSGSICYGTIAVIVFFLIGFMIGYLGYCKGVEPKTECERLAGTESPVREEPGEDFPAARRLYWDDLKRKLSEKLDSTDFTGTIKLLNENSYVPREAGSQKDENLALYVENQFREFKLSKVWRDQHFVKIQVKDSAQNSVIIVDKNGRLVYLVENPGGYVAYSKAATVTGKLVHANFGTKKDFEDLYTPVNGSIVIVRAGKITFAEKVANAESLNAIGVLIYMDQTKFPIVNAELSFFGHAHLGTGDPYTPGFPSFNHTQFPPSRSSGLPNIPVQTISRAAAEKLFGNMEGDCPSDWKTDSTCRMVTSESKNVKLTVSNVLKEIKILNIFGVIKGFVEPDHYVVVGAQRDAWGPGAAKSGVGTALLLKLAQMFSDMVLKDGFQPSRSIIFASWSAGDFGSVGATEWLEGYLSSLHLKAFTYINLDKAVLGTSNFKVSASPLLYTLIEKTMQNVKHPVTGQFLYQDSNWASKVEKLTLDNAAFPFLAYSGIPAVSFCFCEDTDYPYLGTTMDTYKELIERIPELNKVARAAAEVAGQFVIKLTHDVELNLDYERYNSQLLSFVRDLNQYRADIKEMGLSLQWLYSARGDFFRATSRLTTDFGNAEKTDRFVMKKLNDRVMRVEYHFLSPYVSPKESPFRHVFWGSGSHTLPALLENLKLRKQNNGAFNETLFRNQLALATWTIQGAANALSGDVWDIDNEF
Description: as §1, §2, §3

cytosol aminopeptidase = biological target: T3, cytosol aminopeptidase (Homo sapiens, UniProt P28838); test: DARTS proteomic assay; assay type: binding
T3 construct: HEK293T cells were lysed using M-PER; endogenous in cells; host or cells: HEK293T lysate
T3 sequence (P28838 whole entry): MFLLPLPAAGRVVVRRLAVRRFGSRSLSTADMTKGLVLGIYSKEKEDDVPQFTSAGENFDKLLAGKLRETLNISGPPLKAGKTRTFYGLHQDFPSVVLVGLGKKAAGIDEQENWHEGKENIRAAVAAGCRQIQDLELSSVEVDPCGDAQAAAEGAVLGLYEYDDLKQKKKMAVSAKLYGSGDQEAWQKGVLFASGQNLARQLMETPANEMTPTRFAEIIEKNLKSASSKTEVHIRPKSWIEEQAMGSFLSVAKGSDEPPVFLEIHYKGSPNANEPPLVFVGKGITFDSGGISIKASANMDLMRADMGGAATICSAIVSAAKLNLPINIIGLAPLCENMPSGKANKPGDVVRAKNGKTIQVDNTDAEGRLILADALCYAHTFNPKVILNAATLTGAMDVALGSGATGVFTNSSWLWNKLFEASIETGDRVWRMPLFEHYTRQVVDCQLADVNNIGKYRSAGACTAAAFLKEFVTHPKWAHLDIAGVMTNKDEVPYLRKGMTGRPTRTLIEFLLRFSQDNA
Description: (§4) The unique properties of compound it prompted an in-depth analysis to explore its potential novel targets. […] Mammalian thioredoxin reductases (TrxRs) are selenocysteine-containing homodimericflavin enzymes that catalyze the NADPH-dependent reduction of oxidized thioredoxins. […] Therefore, inhibiting this enzyme should form the foundation of a novel anticancer lead drug candidate. Many drug companies around the world are trying to design drugs that target this enzyme, however, until now there is no clinical anti-cancer drug that specifically targets TrxR although some drugs have been reported to inhibit TrxR to varying extents. […] One of the hurdles in developing a successful TrxR inhibitor is its cross reactions with thiols present inside the cells. […] Moreover, according to many reports, inhibiting excessive TrxR levels will also […] of Parkinson's disease as well as Alzheimer's disease. On the other hand, increased aminopeptidases are typically observed in many cancer tissues and play a key role in tumor cell proliferation, angiogenesis, and tumor invasiveness by regulating extracellular matrix degradation and cell signaling and recognition. […] A DARTS assay was used to assess the binding of compound 1t. HEK293T cells were lysed using M-PER (Thermo Scientific, Inc.) supplemented with protease and phosphatase inhibitors (Lysis buffer). 4.7 mg/mL of protein and TNC buffer (10 mM Tris, 140 mMNaCl, 5 mM CaCl2)) was added, compound it was diluted in DMSO to 3 different concentrations (0.01 μM, 0.1 μM, 1 μM) and incubated for one hour at room temperature. Trypsin (Promega) was added and incubated for 3 hours at 37° C. Thereafter, M-PER lysis buffer was added and the samples were concentrated with Microcon 10K centrifugal filters. The proteins were identified by gel electrophoresis liquid chromatography mass spectroscopy ([…]).

thioredoxin reductase = biological target: T4, thioredoxin reductase (Homo sapiens, UniProt Q16881); test: DARTS proteomic assay; assay type: binding; conditions: FIG. 9
T4 construct: HEK293T cells were lysed using M-PER; endogenous in cells; host or cells: HEK293T lysate
T4 sequence (Q16881 151-649 limits assumed): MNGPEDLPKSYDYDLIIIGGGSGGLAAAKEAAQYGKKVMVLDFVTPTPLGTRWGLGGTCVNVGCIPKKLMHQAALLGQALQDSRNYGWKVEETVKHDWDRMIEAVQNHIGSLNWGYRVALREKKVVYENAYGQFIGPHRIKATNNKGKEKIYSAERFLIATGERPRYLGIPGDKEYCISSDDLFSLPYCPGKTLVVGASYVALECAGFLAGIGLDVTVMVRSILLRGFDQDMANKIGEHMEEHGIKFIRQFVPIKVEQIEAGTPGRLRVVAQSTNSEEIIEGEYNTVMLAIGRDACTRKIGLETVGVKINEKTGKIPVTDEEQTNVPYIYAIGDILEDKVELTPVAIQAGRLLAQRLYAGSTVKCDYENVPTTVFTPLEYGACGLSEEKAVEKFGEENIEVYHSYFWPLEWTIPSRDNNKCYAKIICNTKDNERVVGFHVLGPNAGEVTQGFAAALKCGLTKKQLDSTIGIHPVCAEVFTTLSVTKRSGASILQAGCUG
Description: as §4

[3] = biological target: T5, dihydrolipoamide dehydrogenase (Homo sapiens, UniProt P09622); test: DARTS proteomic assay; assay type: binding; conditions: FIG. 15
T5 construct: HEK293T cells were lysed using M-PER; endogenous in cells; host or cells: HEK293T lysate
T5 sequence (P09622 36-509): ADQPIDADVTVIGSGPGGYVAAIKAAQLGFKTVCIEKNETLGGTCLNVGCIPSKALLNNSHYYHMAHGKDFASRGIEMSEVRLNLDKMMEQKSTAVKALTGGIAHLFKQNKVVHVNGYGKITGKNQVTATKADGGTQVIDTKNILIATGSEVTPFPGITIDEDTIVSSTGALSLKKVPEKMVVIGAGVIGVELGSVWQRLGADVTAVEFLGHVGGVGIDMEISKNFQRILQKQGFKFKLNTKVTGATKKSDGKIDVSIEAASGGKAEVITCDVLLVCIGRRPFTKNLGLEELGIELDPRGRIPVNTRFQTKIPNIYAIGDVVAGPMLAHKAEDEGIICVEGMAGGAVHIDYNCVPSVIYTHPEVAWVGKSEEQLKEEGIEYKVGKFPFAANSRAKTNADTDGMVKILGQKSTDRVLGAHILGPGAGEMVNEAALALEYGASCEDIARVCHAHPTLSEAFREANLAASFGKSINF
Description: as §1
Dihydrolipoamide dehydrogenase (DLD) is a mitochondrial enzyme involved in metabolic process that is encoded by the DLD gene. Not many studies have been done to identify the direct involvement of this enzyme in cancers. However, a deregulated level of DLD may modulate mitochondrial-mediated diseases and may impair normal metabolic processes. […] The presently disclosed data is encouraging and indicates compound it may potentially be used to target multiple key enzymes that are involved in tumor development and progression.
as §3

CC1(C)[C@H]2COc3ccc4ccccc4c3[C@H]2N=C2SC(c3ccccc3)=C(c3ccccc3)N21 [Compound 1t]
Expression of p53 (p53): up-regulation | Affinity to bind inositol-3-phosphate synthase [1]: dose-dependent affinity | Affinity to transferrin receptors [2]: higher affinity | Targeting of cytosolic aminopeptidase (cytosol aminopeptidase): dose-dependent manner | Concentration of highest effect on TrxR (thioredoxin reductase): 1 µM | Modulation of TrxR (thioredoxin reductase; HEK293T lysate, 0.01, 0.1, 1 μM): concentration-dependent modulation | Regulation of dihydrolipoamide dehydrogenase [3]: regulates this enzyme

From patent publication US12157745B2, “Heterocyclic systems and pharmaceutical compositions thereof” (University of Sharjah, priority 2018, dated 2024)
